Source: patent publication US20040176339A1, “Antineoplastic combinations” (Wyeth, priority 2003, published 2004)
Each block holds one compound with its values, some of them ahead of it.

Legend:
[1] = system: human tumor xenografts; conditions: nude mice, cited from earlier work
[2] = Stability of CCI-779 in parenteral cosolvent formulation; format: physicochemical; conditions: citric acid at a concentration of less than 0.01% w/v
Description: In this embodiment, the stability of CCI-779 in parenterally acceptable alcoholic cosolvents is enhanced by addition of an antioxidant to the formulation. Acceptable antioxidants include, but are not limited to, citric acid, d,l-α-tocopherol, BHA, BHT, monothioglycerol, ascorbic acid, propyl gallate, and mixtures thereof. Generally, the parenteral formulations useful in this embodiment of the invention will contain an antioxidant component(s) in a concentration ranging from 0.001% to 1% w/v, or 0.01% to 0.5% w/v, of the cosolvent concentrate, although lower or higher concentrations may be desired. Of the antioxidants, d,l-α-tocopherol is particularly desirable and is used at a concentration of 0.01 to 0.1% w/v with a preferred concentration of 0.075% w/v of the cosolvent concentrate.
Examples of such chelating agents include, e.g., citric acid, acetic acid, and ascorbic acid (which may function as both a classic antioxidant and a chelating agent in the present formulations). Other chelating agents include such materials as are capable of binding metal ions in solution, such as ethylene diamine tetra acetic acid (EDTA), its salts, or amino acids such as glycine are capable of enhancing the stability of CCI-779. […] Optimal concentrations for the selected antioxidant(s) can be readily determined by one of skill in the art, based upon the information provided herein.

[3] = system: human glioblastoma cell line; conditions: in vitro; cited from earlier work
[4] = system: histologically diverse tumor cells; conditions: cited from earlier work
[5] = system: locally advanced or metastatic breast cancer; test: Clinical trial of CCI-779 plus letrozole: preliminary tumor responses (RECIST); format: in vivo, postmenopausal women; conditions: for pts with SD 24 wk: CCI pts on HD schedules, letrozole-alone pts; for partial responses (RECIST): evaluable pts: CCI n=13 (responders on HD schedules), letrozole alone n=6; for stable disease (RECIST): evaluable pts: CCI n=13, letrozole alone n=6
Protocol: (§1) The combination of CCI-779 and letrozole in postmenopausal women with locally advanced or metastatic breast cancer is being evaluated in this clinical trial.
(§2) Randomization is in a 1:1:1 ratio (˜30 evaluable pts/arm), letrozole alone: letrozole with CCI daily (CCI daily arm): letrozole with CCI daily for 5 days every 2 weeks (CCI intermittent arm). All pts receive 2.5 mg letrozole daily.
(§3) Thus, the protocol was amended and doses were reduced to low dose (LD) schedules, 10 mg CCI daily and 30 mg CCI intermittent. As of 1 Dec.

[6] = Clinical trial of CCI-779 plus letrozole: safety/tolerability
Protocol: as §1, §2, §3

- stability of CCI-779 in formulation [2]: enhanced the stability
SMILES: CO[C@H]1C[C@@H]2CC[C@@H](C)[C@@](O)(O2)C(=O)C(=O)N2CCCC[C@H]2C(=O)O[C@H]([C@H](C)C[C@@H]2CC[C@@H](OC(=O)C(C)(CO)CO)[C@H](OC)C2)CC(=O)[C@H](C)/C=C(\C)[C@@H](O)[C@@H](OC)C(=O)[C@H](C)C[C@H](C)/C=C/C=C/C=C/1C [CCI-779, Rapamycin 42-ester with 3-hydroxy-2-(hydroxymethyl)-2-methylpropionic acid]
- activity in orthotopic glioma model [1]: active
- activity against human tumor xenografts ([1]; diverse histological types, gliomas particularly sensitive): has activity against human tumor xenografts
- growth of human pancreatic tumors and breast cancer lines in vivo ([1]; several human pancreatic tumors, one of two breast cancer lines): inhibited
- growth factor (platelet-derived)-induced stimulation of glioblastoma cells [3]: markedly suppressed
- growth of tumor cells in vitro ([4]; CNS cancer, leukemia (T-cell), breast cancer, prostate cancer and melanoma lines among the most sensitive): inhibit the growth
- cell cycle effect ([4]; in vitro tumor cells): arrested cells in the G1 phase
- stable disease, pts on HD schedules ([5]; CCI HD schedules (25 mg daily / 75 mg intermittent) with letrozole): 6 pts
- stable disease, pts on LD schedules ([5]; CCI LD schedules (10 mg daily / 30 mg intermittent) with letrozole): 3 pts
- pts with SD 24 wk [5]: 4 pts
- complete response (RECIST) ([5]; evaluable CCI pts n=13, responder on HD schedule): 1 pts
- partial responses (RECIST) [5]: 3 pts
- stable disease (RECIST) [5]: 9 pts
- patients with toxicity that resulted in dose delay/reduction or discontinuation ([6]; female, human, in vivo): 3 patients

SMILES: N#Cc1ccc(C(c2ccc(C#N)cc2)n2cncn2)cc1 [letrozole, reference compound]
- pts with SD 24 wk [5]: 1 pts
- partial responses (RECIST) [5]: 2 pts
- stable disease (RECIST) [5]: 4 pts
- grade 3-4 toxicities ([6]; letrozole alone 2.5 mg daily, 12 pts): No grade 3-4 toxicities
